Results published in patent US20230165865A1, “HETEROARYLDIHYDROPYRIMIDINE DERIVATIVES AND METHODS OF TREATING HEPATITIS B INFECTIONS” (Janssen Pharmaceutica NV, priority 2018, published 2023).

Experiments:
HBV = experiment: Anti-viral assay in HepG2.2.15 cells: anti-HBV activity, HBV DNA in culture medium by qPCR; format: cell-based; conditions: HepG2.2.15 cells, 6 days treatment, HBV DNA by qPCR; read-out: EC50
Procedure, shortened: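 Cells in 2% FBS medium treated 6 days, compound and medium refreshed at day 3; 8-point 1:3 dilutions in triplicate, top 10 or 1 uM (antiviral) and 100 uM (cytotoxicity). Extracellular viral DNA quantified by qPCR, giving EC50 and CC50.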

human hepatocytes = experiment: Metabolic stability of test compound in human hepatocyte cell; format: in vitro ADME; conditions: comparing with reference 1 and reference 2
Procedure, shortened: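 Compounds at 1.0 μM were incubated at 37 °C with cryopreserved human hepatocytes (1×10^6 viable cells/mL) and sampled from 0 to 120 min into cold acetonitrile, then analysed by LC-MS/MS. Half-life came from regression of parent disappearance over time. It was converted to CLint (μL/min/10^6 cells) and to scaled liver CLint (mL/min/kg).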

Question: Which EC50 (HBV) does the source give for CCOC(=O)C1=C(CN2CCN3C(=S)N(CC(C)(C)C(=O)O)CC3C2)NC(c2nccs2)=N[C@H]1c1cccc(F)c1C (single isomer, unassigned) [Compound 1A] here?
Answer: 6.3 nM

Question: And the “metabolic stability in human hepatocyte cells, in words” value (human hepatocytes)?
Answer: improved metabolic stability
